Key:
recombinant human HDAC1 = target: T1, recombinant human HDAC1 (Homo sapiens, UniProt Q13547); assay: In vitro enzyme assay of recombinant HDAC1 (Test (a)); format: biochemical; conditions: recombinant human HDAC1, acetylated histone H4 peptide substrate; read-out: IC50 Test (a) (In vitro assay for the inhibition of HDAC1)
T1 construct: FLAG (C); made in house; host or cells: Hi5 insect cells
Method: (a) In Vitro Enzyme Assay of Recombinant HDAC1
HDAC inhibitors were screened against recombinant human HDAC1 produced in Hi5 insect cells. The enzyme was cloned with a FLAG tag at the C-terminal of the gene and affinity purified using Anti-FLAG M2 agarose from SIGMA (A2220).
The deacetylase assays were carried out in a 50 μl reaction. HDAC1 (75 ng of enzyme) diluted in 15 μl of reaction buffer (25 mM TrisHCl (pH 8), 137 mM NaCl, 2.7 mM KCl, 1 mM MgCl2) was mixed with either buffer alone (10 μl) or buffer containing compound (10 μl) for 30 minutes at ambient temperature. 25 μM acetylated histone H4 peptide (KI 174 Biomol) diluted in 25 μl of buffer was then added to the reaction and incubated for one hour at ambient temperature. The reaction was stopped by addition of an equal volume (50 μl) of Fluor de Lys developer (Biomol) containing Trichostatin A at 2 μM. The reaction was allowed to develop for 30 minutes at ambient temperature and then fluorescence measured at an excitation wavelength of 360 nm and an emission wavelength of 465 nm. IC50 values for HDAC enzyme inhibitors were determined by performing dose response curves with individual compounds and determining the concentration of inhibitor producing fifty percent decrease in the maximal signal (diluent control).

HCT116 cells = assay: In vitro assay of inhibition of proliferation in whole cells (Test (b)); format: cell-based; conditions: Homo sapiens, HCT-116, 72 hours, MTS, read-out: IC50 Test (b) (In vitro assay for the inhibition of whole cell proliferation)
Method: (b) In Vitro Assay of Inhibition of Proliferation in Whole Cells
Inhibition of proliferation in whole cells was assayed using the Promega cell titer 96 aqueous proliferation assay (Promega #G5421). HCT116 cells were seeded in 96 well plates at 1×10^3 cells/well, and allowed to adhere overnight. They were treated with inhibitors for 72 hours. 20 μl of the tetrazolium dye MTS was added to each well and the plates were re-incubated for 3 hours. Absorbance was then measured on a 96 well plate reader at […]. The IC50 values for HDAC inhibitors were determined by performing dose response curves with individual compounds and determining the concentration of inhibitor producing fifty percent decrease in the maximal signal (diluent control).

T1 sequence (Q13547 whole entry): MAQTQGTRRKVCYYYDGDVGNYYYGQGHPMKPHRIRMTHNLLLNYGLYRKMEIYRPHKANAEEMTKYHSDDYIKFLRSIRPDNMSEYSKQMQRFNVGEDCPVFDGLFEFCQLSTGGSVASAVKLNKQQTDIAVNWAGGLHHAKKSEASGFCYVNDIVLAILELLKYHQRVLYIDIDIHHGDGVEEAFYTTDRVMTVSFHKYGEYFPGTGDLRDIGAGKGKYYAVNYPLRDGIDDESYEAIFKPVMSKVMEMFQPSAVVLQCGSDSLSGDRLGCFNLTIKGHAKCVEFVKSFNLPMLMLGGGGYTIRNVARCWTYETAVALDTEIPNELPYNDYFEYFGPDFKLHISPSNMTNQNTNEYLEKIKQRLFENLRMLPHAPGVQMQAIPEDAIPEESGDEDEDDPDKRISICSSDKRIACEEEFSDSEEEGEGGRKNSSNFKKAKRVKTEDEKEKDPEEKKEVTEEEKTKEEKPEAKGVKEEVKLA

| IC50 (recombinant human HDAC1) [nM] | IC50 (HCT116 cells) [nM] | Structure (SMILES) |
| --- | --- | --- |
| 100 | 1430 | Nc1ccccc1NC(=O)c1ccc(C2CCN(Cc3ccccn3)CC2)cc1 [Comparative Compound 1, N-(2-aminophenyl)-4-[1-(pyrid-2-ylmethyl)piperidin-4-yl]benzamide] |
| 81 | 508 | COc1c(CN2CCC(c3ccc(C(=O)Nc4ccccc4N)cc3)CC2)c(C)nn1C [Example 4, N-(2-Aminophenyl)-4-{1-[(5-methoxy-1,3-dimethyl-1H-pyrazol-4-yl)methyl]piperidin-4-yl}benzamide] |

Source: US8735429B2, “Benzamide compounds useful as histone deacetylase inhibitors” (AstraZeneca AB, priority 2005, dated 2014)
